Measured values from patent publication US11957687B2 (REGENERON PHARMACEUTICALS, INC., priority 2019, dated 2024).
Where two headings read alike, the source gives them in different places.

Assays:
[1] = biological target: HSD17B13 (Homo sapiens (Human), UniProt Q7Z5P4); assay: HSD17B13 enzymatic inhibition assay (150 nM or 50 nM HSD17B13); format: biochemical
[2] = Microsome stability assay, human liver microsomes; format: in vitro ADME; conditions: 1 μM compound, 0.5 mg/mL microsomal protein; for microsomal CLint at 1 h, 1 µM / half-life at 1 h, 1 µM / microsomal CLint at 1 μM / half-life at 1 μM: human, human liver microsomes, pooled, NADPH, 37° C.; for microsomal CLint at 1 h, 1 µM / microsomal CLint at 1 μM: read-out: Microsome Stability Human liver microsomes Cl; for half-life at 1 h, 1 µM / half-life at 1 μM: read-out: Microsome Stability Human liver microsomes T½
Method in brief: (§1)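 Compound at 1 μM incubated at 37° C with pooled human or mouse liver microsomes (0.5 mg/mL protein) plus NADPH regenerating system, sampled at 0–60 min; a 60-min no-NADPH incubation also included. Single replicate; LC/MS/MS disappearance from analyte/internal standard peak area ratios, without standard curve.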

[3] = biological target: HSD17B1 (Homo sapiens (Human), UniProt P14061); assay: HSD17B1 enzymatic blocking assay; format: biochemical; conditions: 25 μM Estradiol, 500 μM NAD; read-out: Inhibition of HSD17B1 IC50
Sequence of HSD17B1 (P14061 other isoform, or with tags, fused parts or gaps): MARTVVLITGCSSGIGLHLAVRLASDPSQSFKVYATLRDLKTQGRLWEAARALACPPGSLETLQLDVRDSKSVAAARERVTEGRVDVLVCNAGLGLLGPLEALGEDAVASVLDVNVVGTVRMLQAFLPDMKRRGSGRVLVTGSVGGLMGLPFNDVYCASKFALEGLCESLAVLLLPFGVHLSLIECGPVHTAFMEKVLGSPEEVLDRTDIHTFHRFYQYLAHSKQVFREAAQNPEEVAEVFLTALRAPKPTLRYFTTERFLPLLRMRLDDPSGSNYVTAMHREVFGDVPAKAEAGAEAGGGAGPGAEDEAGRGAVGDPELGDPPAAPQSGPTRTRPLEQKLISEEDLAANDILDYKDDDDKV
Method in brief: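 Activity followed as NADH formed on estradiol oxidation, read by NADH-Glo luminescence after 1 h detection in the dark at room temperature. Compounds preincubated with enzyme 30 min at room temperature; 0.5% DMSO and no-substrate controls. IC50 fitted from luminescence.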

[4] = biological target: HSD17B2 (Homo sapiens (Human), UniProt P37059); assay: HSD17B2 enzymatic blocking assay; format: biochemical; conditions: 1.8 μM Estradiol, 650 μM NAD; read-out: Inhibition of HSD17B2 IC50
Sequence of HSD17B2 (P37059 other isoform, or with tags, fused parts or gaps): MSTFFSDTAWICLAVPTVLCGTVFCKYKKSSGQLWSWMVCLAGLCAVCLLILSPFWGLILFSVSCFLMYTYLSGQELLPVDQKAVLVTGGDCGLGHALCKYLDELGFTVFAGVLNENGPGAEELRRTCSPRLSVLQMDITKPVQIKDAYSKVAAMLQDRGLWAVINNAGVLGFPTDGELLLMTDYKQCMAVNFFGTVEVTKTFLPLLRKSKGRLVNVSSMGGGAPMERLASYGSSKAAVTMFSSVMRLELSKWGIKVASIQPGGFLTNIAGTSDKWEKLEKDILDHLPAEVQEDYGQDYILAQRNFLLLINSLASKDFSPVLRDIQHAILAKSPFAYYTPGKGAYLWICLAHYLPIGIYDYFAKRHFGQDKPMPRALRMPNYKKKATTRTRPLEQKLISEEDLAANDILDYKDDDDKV
Method in brief: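 Mammalian-expressed enzyme at 2 ng/μL in 50 mM Tris-HCl pH 7.5 with detergents/BSA, preincubated 15 min at 20° C. with compound (10-point titration). Reaction with 1.8 μM estradiol and 650 μM NAD ran 45 min at 20° C.; NADH measured by NADH-Glo luminescence and IC50 derived.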

[5] = Microsome stability assay, mouse liver microsomes; format: in vitro ADME; conditions: 1 μM compound, 0.5 mg/mL microsomal protein; for microsomal CLint at 1 h, 1 µM / half-life at 1 h, 1 µM / microsomal CLint at 1 μM / half-life at 1 μM: mouse, mouse liver microsomes, pooled, NADPH, 37° C.; for microsomal CLint at 1 h, 1 µM / microsomal CLint at 1 μM: read-out: Microsome Stability Mouse liver microsomes Cl; for half-life at 1 h, 1 µM / half-life at 1 μM: read-out: Microsome Stability Mouse liver microsomes T½
Method in brief: as §1

[6] = 50 nM HSD17B13, read-out: Inhibition of 50 nM of HSD17B13 IC50

Sequence of HSD17B13 (Q7Z5P4 other isoform, or with tags, fused parts or gaps): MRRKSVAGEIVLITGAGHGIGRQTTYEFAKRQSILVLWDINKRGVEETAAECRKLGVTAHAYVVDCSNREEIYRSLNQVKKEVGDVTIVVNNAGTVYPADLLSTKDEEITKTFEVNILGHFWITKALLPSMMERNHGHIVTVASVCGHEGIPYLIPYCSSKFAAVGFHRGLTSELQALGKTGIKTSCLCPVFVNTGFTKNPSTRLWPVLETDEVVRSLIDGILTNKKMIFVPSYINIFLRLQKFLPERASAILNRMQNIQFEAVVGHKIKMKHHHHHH

IC50 [1, 6] [nM] | Microsome Stability Human liver microsomes % Remaining @60 min [2] [%] | microsomal CLint at 1 h, 1 µM [2] [µL/min/mg] | half-life at 1 h, 1 µM [2] [min] | IC50 [3] [µM] | IC50 [4] [µM] | microsomal CLint at 1 μM [2] [µL/min/mg] | half-life at 1 μM [2] [min] | Microsome Stability Mouse liver microsomes % Remaining @60 min [5] [%] | microsomal CLint at 1 h, 1 µM [5] [µL/min/mg] | half-life at 1 h, 1 µM [5] [min] | IC50 ([1]; 150 nM HSD17B13, read-out: Inhibition of 150 nM of HSD17B13 IC50) [nM] | microsomal CLint at 1 μM [5] [µL/min/mg] | half-life at 1 μM [5] [min] | SMILES
740 | 3.40 | 110 | 12.6 | > 30 | 8.02 | – | – | – | – | – | – | – | – | O=C(NC(c1ccccc1)c1ccc(-c2ccccc2)cc1)c1ccc(C(F)(F)F)[nH]c1=O (stereo not drawn) [Compound 2, N-([1,1′-biphenyl]-4-yl(phenyl)methyl)-2-oxo-6-(trifluoromethyl)-1,2-dihydropyridine-3-carboxamide]
850 | 16.00 | 52 | 26.6 | > 30 | 15.3 | – | – | – | – | – | – | – | – | Cc1ccccc1C(NC(=O)c1ccc(C(F)(F)F)[nH]c1=O)c1ccccc1 (stereo not drawn) [Compound 5, N-(phenyl(o-tolyl)methyl)-2-oxo-6-(trifluoromethyl)-1,2-dihydropyridine-3-carboxamide]
– | 82.00 | – | – | > 30 | 8.48 | < 9.6 | > 145 | 16.80 | 59.6 | 23.3 | – | – | – | O=C(NC(c1ccccc1)c1ccccc1Cl)c1ccc(C(F)(F)F)[nH]c1=O (stereo not drawn) [Compound 9, N-((2-chlorophenyl)(phenyl)methyl)-2-oxo-6-(trifluoromethyl)-1,2-dihydropyridine-3-carboxamide]
260 | 41.70 | 30.2 | 45.9 | > 30 | 11.2 | – | – | 5.60 | 96.8 | 14.3 | – | – | – | Cc1ccc(C(NC(=O)c2ccc(C(F)(F)F)[nH]c2=O)c2ccc(C)cc2)cc1 [Compound 15, N-(di-p-tolylmethyl)-2-oxo-6-(trifluoromethyl)-1,2-dihydropyridine-3-carboxamide]
960 | 97.60 | – | – | > 30 | 10.9 | < 9.6 | > 145 | 70.60 | 10.2 | 136 | – | – | – | O=C(NC(c1ccc(Cl)cc1)c1ccc(Cl)cc1)c1ccc(C(F)(F)F)[nH]c1=O [Compound 17, N-(bis(4-chlorophenyl)methyl)-2-oxo-6-(trifluoromethyl)-1,2-dihydropyridine-3-carboxamide]
750 | 73.00 | 10.8 | 128 | > 30 | 12 | – | – | – | – | – | – | – | – | O=C(NC(c1ccccc1)c1ccc(Cl)cc1)c1ccc(C(F)(F)F)[nH]c1=O (stereo not drawn) [Compound 21, N-((4-chlorophenyl)(phenyl)methyl)-2-oxo-6-(trifluoromethyl)-1,2-dihydropyridine-3-carboxamide]
530 | 1.00 | 265 | 5.22 | > 30 | 18.2 | – | – | – | – | – | – | – | – | O=C(NC1c2ccccc2-c2ccccc21)c1ccc(C(F)(F)F)[nH]c1=O [Compound 25, N-(9H-fluoren-9-yl)-2-oxo-6-(trifluoromethyl)-1,2-dihydropyridine-3-carboxamide]
1060 | 0.40 | 511 | 2.71 | > 30 | 16.8 | – | – | – | – | – | 470 | – | – | Cc1ccc(C(NC(=O)c2ccc(C(F)(F)F)[nH]c2=O)c2ccccc2)cc1 (stereo not drawn) [Compound 27, N-(phenyl(p-tolyl)methyl)-2-oxo-6-(trifluoromethyl)-1,2-dihydropyridine-3-carboxamide]
350 | 60.30 | 14.8 | 93.7 | > 30 | 28.6 | – | – | 83.80 | – | – | – | < 9.6 | > 145 | O=C(Nc1cccc2c(O)cccc12)c1ccc(C(F)(F)F)[nH]c1=O [Compound 223, N-(5-hydroxynaphthalen-1-yl)-2-oxo-6-(trifluoromethyl)-1,2-dihydropyridine-3-carboxamide]
560 | 60.40 | 16.4 | 84.5 | 24.8 | 28 | – | – | 76.60 | – | – | – | < 9.6 | > 145 | Nc1cccc2c(NC(=O)c3ccc(C(F)(F)F)[nH]c3=O)cccc12 [Compound 228, N-(5-aminonaphthalen-1-yl)-2-oxo-6-(trifluoromethyl)-1,2-dihydropyridine-3-carboxamide]
210 | 83.40 | – | – | > 30 | 40.7 | < 9.6 | > 145 | 94.70 | – | – | – | < 9.6 | > 145 | O=C(NC1CCCc2c(O)cccc21)c1ccc(C(F)(F)F)[nH]c1=O (stereo not drawn) [Compound 230, N-(5-hydroxy-1,2,3,4-tetrahydronaphthalen-1-yl)-2-oxo-6-(trifluoromethyl)-1,2-dihydropyridine-3-carboxamide]
30 | 78 | – | – | 15.8 | > 100 | < 9.6 | > 145 | 64 | 13.4 | 103 | – | – | – | COc1ccc2c(c1)Sc1cc(OC)ccc1C2NC(=O)c1ccc(C(F)(F)F)[nH]c1=O [Compound 241, N-(3,6-dimethoxy-9H-thioxanthen-9-yl)-2-oxo-6-(trifluoromethyl)-1,2-dihydropyridine-3-carboxamide]
10 | 73.50 | 11 | 126 | 5.84 | 19.3 | – | – | 28.60 | 41.7 | 33.2 | – | – | – | Cc1ccc2c(c1)Sc1cc(C)ccc1C2NC(=O)c1ccc(C(F)(F)F)[nH]c1=O [Compound 252, N-(3,6-dimethyl-9H-thioxanthen-9-yl)-2-oxo-6-(trifluoromethyl)-1,2-dihydropyridine-3-carboxamide]
20 | 24.50 | 46.9 | 29.5 | 11.1 | 32.1 | – | – | 81.70 | – | – | – | < 9.6 | > 145 | Cc1ccc2c(c1)Oc1cc(C)ccc1C2NC(=O)c1cc(OC2CCOCC2)c(C(F)(F)F)[nH]c1=O [Compound 260, N-(3,6-dimethyl-9H-xanthen-9-yl)-2-oxo-5-((tetrahydro-2H-pyran-4-yl)oxy)-6-(trifluoromethyl)-1,2-dihydropyridine-3-carboxamide]
